# Test results published in article PMC9666779 (Frontiers in Pharmacology, 2022).
# Bridge positions count the residues as written; N and C are the ends. Square brackets hold non-standard residues; d marks the D form. Peptide text beside a SMILES is read from it.
# System: pseudotyped SARS-CoV-2 Omicron BA.2.75
# Conditions: pseudotyped Omicron BA.2.75, 1 h, 2 μM
smiles,measurement,value
CC(C)C[C@@H]1NC(=O)[C@H](C(C)C)NC(=O)[C@H](C)NC(=O)[C@H](Cc2ccc(O)cc2)NC(=O)[C@H](CCC(N)=O)NC(=O)[C@H](CC(C)C)NC(=O)[C@@H](Cc2ccccc2)NC(=O)[C@H](N)CSSC[C@H](C(=O)NCC(=O)NCC(=O)NCC(=O)N[C@@H](CCCNC(=N)N)C(=O)N2CCC[C@H]2C(=O)N2CCC[C@H]2C(=O)N[C@@H](CCCNC(=N)N)C(=O)N[C@@H](CCCNC(=N)N)C(=O)N[C@@H](C)C(=O)N[C@@H](CCCNC(=N)N)C(=O)O)NC(=O)[C@H](CCC(=O)O)NC(=O)[C@H](CCCNC(=N)N)NC(=O)[C@H](CCCNC(=N)N)NC(=O)[C@H](CCCCN)NC(=O)[C@H](CCC(N)=O)NC(=O)[C@H](CCCCN)NC1=O [MN-2] (H-[dC][dF]LQYAVLKQKRRE[dC]GGGRPPRRAR-OH; disulfide 1-15),inhibition rate of the variant Omicron BA.2.75 pseudovirus,about 80%
